In US20100099559A1, “Method for protecting soybeans from being infected by fungi” (BASF SE, priority 2007, published 2010):

Test system: Cercospora sojina
Assay: Activity against Cercospora sojina, microtiter plate test
Assay type: cell-based
Settings: single active, absorption at 405 nm on day 7 after inoculation, 18° C.
Method: The expected efficacies of active compound combinations were determined using Colby's formula (Colby, S. R. “Calculating synergistic and antagonistic responses of herbicide combinations”, Weeds, 15, pp. 20-22, 1967) and compared with the observed efficacies. E=x+y−x·y/100 Colby's formula • E expected efficacy, expressed in % of the untreated control, when using the mixture of the active compounds A and B at the concentrations a and b • x efficacy, expressed in % of the untreated control, when using the active compound A at the concentration a • y efficacy, expressed in % of the untreated control, when using the active compound B at the concentration b A solution containing 10 mg a.i. per 1 ml dimethyl sulfoxide is prepared. The stock solution is pipetted onto a microtiter plate (MTP) and diluted with water. In a second step a spore suspension of Cercospora sojina (containing a biomalt-based aqueous nutrient medium) was given to the stated active compound concentration. The plates were placed in a water vapor-saturated chamber at temperatures of 18° C. Using an absorption photometer, the MTPs were measured at 405 nm on day 7 after the inoculation. The measured parameters were compared to the growth of the active compound-free control variant and the fungus- and active compound-free blank value to determine the relative growth in % of the pathogens in the individual active compounds.

Fc1ccc([C@]2(Cn3cncn3)O[C@H]2c2ccccc2Cl)cc1 (racemic) [epoxiconazole, reference compound]
Observed activity (% infection) (concentration 0.063 ppm): 0%

Cn1cc(C(=O)Nc2ccccc2[C@@H]2C[C@H]2C2CC2)c(C(F)F)n1 [Compound (Ia), N-(trans-2-bicycloprop-2-ylphenyl)-3-difluoromethyl-1-methyl-1H-pyrazole-4-carboxamide]
Observed activity (% infection) (concentration 0.016 ppm): 0% | Observed activity (% infection) (concentration 0.063 ppm): 31%
